Data from US12035738B2, “Low calorie food compositions” (Mars, Incorporated, priority 2015, dated 2024).

How the values were obtained:
[1] = Previous tolerability study (H-09-2011), cellobiose consumed as a drink in water based solution; type: in vivo, humans
Procedure: (§1) A number of gastro-intestinal symptoms were reported by the panelists in the 24 hours following the sensory sessions, the most common being flatulence (10/10 on at least 1 occasion) and bowel sounds (8/10 on at least 1 occasion). Some degree of […] discomfort was reported by 7/10 panelists on 1 or more occasions and 5 out of the 10 panelists suffered diarrhea following 1 or more sessions. A previous tolerability study carried out using cellobiose (H-09-2011) examined GI effects when cellobiose was delivered in a water based solution and used only male subjects aged between 18-35 yrs. The number and severity of symptoms seen in this study was not expected given the previous tolerability results where cellobiose was consumed as a drink (10, 20, 30 or 50 g of cellobiose was dissolved in 200 ml of hot water and allowed to cool to room temperature overnight). […] With the consumption of 30 g, 4 people (31%) experienced short duration abdominal pain (ranging in severity from 1 to 3 out of 5), 2 people (15%) reported mild flatulence (severity 1 out of 5) and one person reported this at a severity of 3 out of 5. […] Six subjects (46%) reported flatulence (range 1-4 out of 5), and 4 experienced abdominal pain (severity between 1-2 out of 5). Three quarters of subjects were happy to take part in future studies involving the ingestion of cellobiose, even at the highest dose.

[2] = administered to humans as a drink; cited from earlier work
[3] = set-up: species or system humans; conditions: in vivo
Procedure: A panel of 10 assessors were used to evaluate sensory differences between cellobiose containing (2 levels; 75% and 100% sucrose substitution) and standard chocolate.
The maximum amount of cellobiose consumed during one 3 hour sensory session was set at 20 g and 8 g respectively (100% cellobiose sample contained 49.5 g cellobiose/100 g, 75% cellobiose sample contained 34.7 g/100 g and 60% inulin sample contained 29.7 g inulin/100 g).
For each attribute, panelists were presented with all samples (˜3.5 g sample size) allowing comparative assessment. Panelists first determined rank order and then assigned ratings using separate line scales for each sample/attribute.
All samples were presented in 2 oz plastic pots labelled with random 3 digit codes. Panelists were provided with unsalted cracker (Rakusen, U.K.), green apple slices and mineral water (Evian, France) for palate cleansing. Attributes were assessed in blocks of 2 followed by 15 mins rest breaks.
as §1

[4] = 30 g cellobiose, severity 1 out of 5

panelists reporting bowel sounds ([3]; human, 24 h): 8/10
panelists reporting flatulence ([3]; human, 24 h): 10/10
panelists reporting some degree of abominable discomfort ([3]; human, 24 h): 7/10
panelists who suffered diarrhea ([3]; human, 24 h): 5 out of the 10 panelists
Symptoms (y/n) [3]: Y
SMILES: O=C[C@H](O)[C@@H](O)[C@H](O[C@@H]1O[C@H](CO)[C@@H](O)[C@H](O)[C@H]1O)[C@H](O)CO [cellobiose]
abdominal symptoms reported ([1]; 10 g cellobiose in 200 ml water): mild or no abdominal symptoms
abdominal symptoms reported ([1]; 20 g cellobiose in 200 ml water): mild or no abdominal symptoms
people who experienced short duration abdominal pain ([1]; 30 g cellobiose): 4 people
persons who reported flatulence at a severity of 3 out of 5 ([1]; 30 g cellobiose): one
severity of mild flatulence ([1]; 30 g cellobiose): 1 out of 5
share of people with short duration abdominal pain ([1]; 30 g cellobiose): 31%
people who reported mild flatulence [1, 4]: 2 people
share of people with mild flatulence [1, 4]: 15%
abdominal pain severity ([1]; 50 g cellobiose): 1-2 out of 5
flatulence severity range ([1]; 50 g cellobiose): 1-4 out of 5
persons who reported diarrhea in the first 24 h ([1]; 50 g cellobiose): 1
persons with a single episode of diarrhea 2 h after consuming ([1]; 50 g cellobiose): 1 person
share of subjects who reported flatulence ([1]; 50 g cellobiose): 46%
subjects who experienced abdominal pain ([1]; 50 g cellobiose): 4
subjects who reported flatulence ([1]; 50 g cellobiose): Six
unpleasant side effects [2]: not observed to such a great degree
undesirable side effects [3]: stomach cramps, nausea, diarrhea and loss of appetite
